Each structure is given as a SMILES string. Read-outs that look alike come from different tables or passages of the source. Bounds are passed on as bounds.

Test [1] deals with butyric acid malodor perception. The test is described as follows: Human sensory panel, perceived intensity of butyric acid. The class given is in vivo. The settings on record: Table 20. The method, then: The pleasantness of the compounds delivered alone (triangles, dashed-line) and in a mixture with butyric acid at isointense concentrations (squares, solid line). Many of these compounds are shown to inhibit the activity of a butyric acid olfactory receptor.
Malodor receptor antagonist systems and compositions were evaluated at a gas phase concentration of 3.4 microg/1 air. The sensory method to evaluate compositions required the use of specially designed air dilution olfactometers to achieve well controlled and stable gas phase concentrations of the compositions and of the malodor to the group of test subjects.
The 30 subjects first evaluated the malodor reconstitution alone and then rated the 3 attributes “Freshness”, “Pleasantness” and “malodor” (the malodor character) on a 0 to 10 scale. The next evaluation was performed 30 seconds later to avoid odor adaptation, the malodor reconstitution was injected together with the test composition in the olfactometer. Ratings for the same descriptors recorded.

The target of test [2] is T1, OR51E1 olfactory receptor (Homo sapiens, UniProt Q8TCB6).
T1 construct: expressed in transfected cells
T1 sequence (Q8TCB6 1-318): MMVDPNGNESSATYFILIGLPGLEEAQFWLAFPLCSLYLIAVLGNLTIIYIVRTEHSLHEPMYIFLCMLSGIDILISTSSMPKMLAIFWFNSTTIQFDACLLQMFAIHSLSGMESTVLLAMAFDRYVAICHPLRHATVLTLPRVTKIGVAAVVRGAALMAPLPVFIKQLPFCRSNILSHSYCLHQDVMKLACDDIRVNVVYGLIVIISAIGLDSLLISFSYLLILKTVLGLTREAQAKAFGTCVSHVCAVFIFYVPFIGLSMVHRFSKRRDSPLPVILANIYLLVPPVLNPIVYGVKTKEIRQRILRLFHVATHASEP
In words: Butyric acid olfactory receptor antagonist cell-based dose-response vs butyric acid EC80. The conditions noted are these: Table 20, spiro analogues; for Emax: read-out: Inhibition (%).

In test [3] the test system is geonol receptors Olfr339, Olfr1487, Olfr1A1, OR11A1, Olfr96. The test is described as follows: Antagonists of geonol receptors (Example 11). The conditions noted are these: Table 18. Further details: Inhibition(%): concentration or dose not given beside the values. Type of test: cell-based, mouse and human.
The target in another test is T2, Olfr744 (Mus musculus, UniProt Q7TRM0).
T2 construct: Flag; Rho tag; expressed in transfected cells
T2 sequence (Q7TRM0 1-323): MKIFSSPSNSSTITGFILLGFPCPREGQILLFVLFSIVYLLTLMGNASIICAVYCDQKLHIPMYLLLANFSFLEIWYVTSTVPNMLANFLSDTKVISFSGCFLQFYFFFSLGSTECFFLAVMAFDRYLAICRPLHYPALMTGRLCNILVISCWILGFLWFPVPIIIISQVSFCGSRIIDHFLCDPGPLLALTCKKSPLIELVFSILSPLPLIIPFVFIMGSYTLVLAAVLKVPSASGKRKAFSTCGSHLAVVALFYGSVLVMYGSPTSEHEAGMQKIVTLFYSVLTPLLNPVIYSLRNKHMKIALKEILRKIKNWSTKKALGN
The test is described as follows: Indole antagonist dose-response, cAMP HTRF in HEK293T, vs indole EC80. Type of test: cell-based. The settings on record: Table 23. On the procedure: (§1) Functional dose-response experiments were performed to identify compounds capable of antagonizing indole-sensitive receptors previously identified (U.S. Pat. No. 9,914,760 B2). Using a cell-based assay, mouse receptor Olfr738, Olfr739, Olfr740, Olfr741, 0fr742, Olfr743, Olfr744, Olfr746, Olfr748 and Olfr749 were tested in an HEK293T cell line wherein the endogenous RTP1 gene has been activated and the odorant receptor chaperone was expressed (described in WO2016201153A1). The receptor genes were tagged with a Flag-Rho tag combination. Receptor genes were co-transfected with the canonical olfactory human G-protein alpha subunit Golf gene. Co-expression of the human Golf activates the Gs transduction pathway that leads to an internal cAMP increase upon binding to the appropriate ligand (indole here). Odorant-induced activity was detected by measuring the cAMP increase in the cytosol using an HTRF based kit (CisBio, cAMP dynamic 2 kit, cat. 62AM4PEJ). The receptors were exposed to binary mixtures of increasing concentrations of the test compounds in the presence of a potent activation concentration of indole (EC80) for each receptor. […] All the compounds listed decreased the indole induced activity of at least one receptor.
For orientation: TR-FRET usually uses a lanthanide donor and a delayed reading to cut background.

For another test, the target named is T3, Olfr746 (Mus musculus, UniProt E9Q840).
T3 construct: Flag; Rho tag; expressed in transfected cells
T3 sequence (E9Q840 1-314): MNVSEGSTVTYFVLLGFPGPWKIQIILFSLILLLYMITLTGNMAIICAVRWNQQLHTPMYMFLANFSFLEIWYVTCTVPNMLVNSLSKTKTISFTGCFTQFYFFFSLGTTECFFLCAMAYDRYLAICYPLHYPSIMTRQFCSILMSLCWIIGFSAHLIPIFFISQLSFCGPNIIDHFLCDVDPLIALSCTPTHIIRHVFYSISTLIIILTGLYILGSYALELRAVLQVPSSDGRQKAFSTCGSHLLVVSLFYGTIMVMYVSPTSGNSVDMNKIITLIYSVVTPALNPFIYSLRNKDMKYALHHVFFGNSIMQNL
Described as above. The class given is cell-based. The conditions noted are these: Table 23. The method, then: as §1

For another test, the target named is Olfr743 (Mus musculus, UniProt L7N1Y2). The test is described as above. The settings on record: Table 23. Type of test: cell-based. The method, then:
as §1

Another test concerns the target Olfr739 (Mus musculus, UniProt E9Q1P0). The description is as above. Type of test: cell-based. The conditions noted are these: for IC50: Table 22, first listing (r7-r45). On the procedure: as §1
A further test has as its target T4, Olfr749 (Mus musculus, UniProt E9Q438).
T4 construct: Flag; Rho tag; expressed in transfected cells
T4 sequence (E9Q438 1-313): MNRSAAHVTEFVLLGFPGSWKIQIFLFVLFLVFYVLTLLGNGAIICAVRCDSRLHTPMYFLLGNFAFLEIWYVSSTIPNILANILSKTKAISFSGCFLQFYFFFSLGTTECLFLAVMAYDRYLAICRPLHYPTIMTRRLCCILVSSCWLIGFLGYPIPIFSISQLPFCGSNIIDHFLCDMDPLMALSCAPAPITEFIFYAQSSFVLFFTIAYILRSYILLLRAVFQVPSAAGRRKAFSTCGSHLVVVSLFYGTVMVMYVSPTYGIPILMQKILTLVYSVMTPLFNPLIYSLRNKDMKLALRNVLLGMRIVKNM
The description is as above. The class given is cell-based. The settings on record: Table 23. The method, then:
as §1

For test [4], the system named is 1-octen-3-ol mushroom/earthy/fungal odor perception. The test is described as follows: Human sensory performance of test compounds with and without 1-octen-3-ol. Type of test: in vivo. The settings on record: Test Compound Only.
The target of the next test is Olfr738 (Mus musculus, UniProt L7N1X7). The test is described as follows: Indole antagonist dose-response, cAMP HTRF in HEK293T, vs indole EC80. The settings on record: vs indole EC80; for IC50: Table 22, first listing (r7-r45), read-out: Olfr738 IC50. The class given is cell-based.
Olfr738, sequence (L7N1X7 entry or part of it): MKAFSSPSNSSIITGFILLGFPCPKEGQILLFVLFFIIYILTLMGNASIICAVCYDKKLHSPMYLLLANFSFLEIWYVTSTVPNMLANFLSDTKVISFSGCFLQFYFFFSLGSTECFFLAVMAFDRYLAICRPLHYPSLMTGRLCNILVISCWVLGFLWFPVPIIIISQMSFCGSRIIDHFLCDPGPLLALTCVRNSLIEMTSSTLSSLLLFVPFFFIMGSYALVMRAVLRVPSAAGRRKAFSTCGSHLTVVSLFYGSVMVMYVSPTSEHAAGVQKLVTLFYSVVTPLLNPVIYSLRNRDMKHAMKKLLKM
For the next test, the target named is Olfr741 (Mus musculus, UniProt L7N1Y5). The test is described as above. Type of test: cell-based.
Olfr741, sequence (L7N1Y5 entry or part of it): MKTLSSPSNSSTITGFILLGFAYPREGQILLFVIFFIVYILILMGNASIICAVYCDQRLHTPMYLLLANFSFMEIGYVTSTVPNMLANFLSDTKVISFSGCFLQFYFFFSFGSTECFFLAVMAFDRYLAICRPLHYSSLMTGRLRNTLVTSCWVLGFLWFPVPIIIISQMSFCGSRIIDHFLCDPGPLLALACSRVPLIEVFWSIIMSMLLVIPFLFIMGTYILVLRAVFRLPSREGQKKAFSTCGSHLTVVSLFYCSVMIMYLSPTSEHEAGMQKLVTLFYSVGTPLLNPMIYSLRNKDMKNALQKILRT
The next test has as its target Olfr748 (Mus musculus, UniProt E9Q9Z0). Described as above. Type of test: cell-based. The conditions noted are these: Table 23.
For a further test, the target named is Olfr740 (Mus musculus, UniProt E9PV79). The description is as above. Type of test: cell-based. The settings on record: vs indole EC80; for Emax: HEK-293T, read-out: Olfr740 % Inhibition; for IC50: Table 22, first listing (r7-r45), read-out: Olfr740 IC50.
Olfr740, sequence (E9PV79 entry or part of it): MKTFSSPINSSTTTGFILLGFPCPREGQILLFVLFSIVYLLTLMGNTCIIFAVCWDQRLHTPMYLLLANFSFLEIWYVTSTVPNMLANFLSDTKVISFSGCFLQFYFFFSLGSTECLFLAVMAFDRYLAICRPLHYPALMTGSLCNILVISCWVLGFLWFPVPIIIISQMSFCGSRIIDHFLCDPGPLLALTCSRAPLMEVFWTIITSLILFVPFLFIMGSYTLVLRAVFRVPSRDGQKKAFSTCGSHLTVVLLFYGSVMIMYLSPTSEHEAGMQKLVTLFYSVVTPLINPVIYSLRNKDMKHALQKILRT
The subject of test [5] is OR2W1 or the OR1A1 olfactory receptor. In words: 1-octen-3-ol olfactory receptor antagonist cell-based dose-response vs 1-octen-3-ol EC80.
Description: Each cell line was screened with a volatile compound library for their inhibitory properties and potential 1-octen-3-ol smell inhibition.
Single concentration monitoring of the 1-octen-3-ol induced cell activity in the presence or absence of a test compound allowed for the identification of compounds with a putative suppression or inhibitory effect.
Test [6] relates to geonol earthy/moss odor perception. In words: Human sensory performance of test compounds with and without geonol. Type of test: in vivo. The conditions noted are these: Test Compound Only. Put shortly: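 Panelists first learned the earthy/moss quality from a geonol-only reference, then rated pleasantness, earthy/moss intensity and overall intensity of geonol alone, antagonist alone, and geonol mixed with isointense or low-intensity antagonist on a 0-10 linear scale. Samples were presented in glass jars in randomized order with two-minute intervals.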

In a further test the target is Olfr742 (Mus musculus, UniProt A2RTP5). In words: Indole antagonist dose-response, cAMP HTRF in HEK293T, vs indole EC80. Type of test: cell-based. The conditions noted are these: vs indole EC80; for Emax: HEK-293T, read-out: Olfr742 % Inhibition.
Olfr742, sequence (A2RTP5 entry or part of it): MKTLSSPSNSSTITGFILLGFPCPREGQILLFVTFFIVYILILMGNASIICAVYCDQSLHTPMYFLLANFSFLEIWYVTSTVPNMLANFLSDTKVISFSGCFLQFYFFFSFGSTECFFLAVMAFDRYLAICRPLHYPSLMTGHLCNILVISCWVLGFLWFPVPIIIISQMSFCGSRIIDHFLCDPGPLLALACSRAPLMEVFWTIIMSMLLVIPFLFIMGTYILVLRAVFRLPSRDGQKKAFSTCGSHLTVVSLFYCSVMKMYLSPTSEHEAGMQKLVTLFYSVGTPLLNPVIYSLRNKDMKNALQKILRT
The mark [7] stands for this setting: Table 22, second listing of the same compounds.

Olfr739, sequence (E9Q1P0 entry or part of it): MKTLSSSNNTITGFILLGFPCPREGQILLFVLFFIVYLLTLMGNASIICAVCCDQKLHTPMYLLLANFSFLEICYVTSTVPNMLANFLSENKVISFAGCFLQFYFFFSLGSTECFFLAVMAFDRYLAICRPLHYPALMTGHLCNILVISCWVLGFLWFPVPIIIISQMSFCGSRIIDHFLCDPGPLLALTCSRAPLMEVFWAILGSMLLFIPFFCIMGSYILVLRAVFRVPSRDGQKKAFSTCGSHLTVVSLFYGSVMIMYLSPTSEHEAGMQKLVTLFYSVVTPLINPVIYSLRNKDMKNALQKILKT
Olfr743, sequence (L7N1Y2 entry or part of it): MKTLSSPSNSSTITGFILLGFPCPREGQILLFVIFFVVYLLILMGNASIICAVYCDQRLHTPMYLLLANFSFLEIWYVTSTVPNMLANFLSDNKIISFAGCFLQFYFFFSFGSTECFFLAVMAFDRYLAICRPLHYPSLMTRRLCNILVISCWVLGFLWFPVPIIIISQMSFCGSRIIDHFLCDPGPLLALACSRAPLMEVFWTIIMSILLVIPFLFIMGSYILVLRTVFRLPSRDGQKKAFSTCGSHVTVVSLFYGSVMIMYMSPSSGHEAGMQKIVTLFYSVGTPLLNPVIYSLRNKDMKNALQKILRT
Olfr748, sequence (E9Q9Z0 entry or part of it): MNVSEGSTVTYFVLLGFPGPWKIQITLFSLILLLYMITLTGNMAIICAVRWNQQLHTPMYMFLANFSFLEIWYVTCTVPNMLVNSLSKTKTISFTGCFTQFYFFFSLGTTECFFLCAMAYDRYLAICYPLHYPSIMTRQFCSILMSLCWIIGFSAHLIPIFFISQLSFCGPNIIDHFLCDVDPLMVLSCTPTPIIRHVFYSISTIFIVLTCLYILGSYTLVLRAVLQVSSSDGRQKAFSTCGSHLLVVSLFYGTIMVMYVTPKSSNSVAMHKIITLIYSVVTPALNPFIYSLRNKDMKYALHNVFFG

Turning to `CC1=C(C)CC2(CCCC(C)(C)C2=O)C1` [2,3,9,9-tetramethylspiro[4.5]dec-2-en-10-one], the “Sensory Performance (%)” value in test [1] is 56%.

As usually defined, the IC50 is the concentration needed to halve the response being measured. `C=C(C)CC1(CC(=C)C)CCCC(C)(C)C1=O` [2,2-dimethyl-6,6-bis(2-methylprop-2-enyl)cyclohexan-1-one]: in test [1], the “Sensory Performance (%)” value worked out at 50%. Besides, in test [2], the IC50 was determined as 46.6 µM and the Emax was found to be 103%.

In the case of `CC(=O)OC1C(C)(C)CCCC12CC(C)C(C)C2` (stereo not drawn), the “Sensory Performance (%)” value in test [1] was 50%. Moreover, in test [2], the IC50 was 51.4 µM and the Emax came out at 62%.

Take `CC1=C(C)CC2(CCCC(C)(C)C2O)C1` (stereo not drawn) [2,3,9,9-tetramethylspiro[4.5]dec-2-en-10-ol]: in test [1], the “Sensory Performance (%)” value worked out at 60%. Further, in test [2], the IC50 was 78.7 µM and the Emax was 16%.

For orientation: % Inhibition means the relative decrease from the control value, in per cent. For the compound `CC1(C)CCC[C@]2(C)CC(=O)CC[C@@H]12` (racemic) [(+−)-perhydro-5,5,8A-trimethyl-2-trans-naphthalenone], the half-inhibitory concentration (IC50) in test [3] was determined as 96.7 µM; on Olfr744, 74.7 µM; at Olfr746, 308 µM; on Olfr743 it was 264 µM; at Olfr739, 13.9 µM; on Olfr749, 41.5 µM. The IC50 on Olfr738 was found to be 2.74 µM; on Olfr741 (Table 22, first listing) it was 148 µM; on Olfr748 it was 106 µM; on Olfr740, 1.96 µM; in test [5] (1-octen-3-ol at EC80), 63.2 µM. Moreover, in test [3], the “Inhibition(%)” value is given as 71%. The “Olfr744 % Inhibition” value at Olfr744 worked out at 107.89%. Also, at Olfr746, the “Olfr746 % Inhibition” value is 81.36%. For the same compound, the “Olfr743 % Inhibition” value at Olfr743 amounted to 123.10%. The “Olfr739 % Inhibition” value at Olfr739 (Table 22, first listing) came to 68.44%. The “Olfr749 % Inhibition” value on Olfr749 is recorded as 96.98%. In test [4], the “% Mushroom/Earthy/Fungal Odor” value stood at 30.80%. Also, the “Olfr738 % Inhibition” value on Olfr738 (Table 22, first listing) was 101.72%. For the same compound, the “Olfr741 % Inhibition” value on Olfr741 (Table 22, first listing) is recorded as 96.86%. For the same compound, the “Olfr748 % Inhibition” value on Olfr748 was found to be 65.60%. Further, the Emax on Olfr740 (Table 22, first listing) is 127%. The “% Inhibition” value in test [5] (maximum inhibition normalized to baseline agonist activity) worked out at 102.97%. Also, the “% Earthy/Moss Odor” value in test [6] is given as 45.20%.

As for `C=C1CC[C@H]2O[C@]2(C)CC[C@@H]2[C@@H]1CC2(C)C`, the IC50 at Olfr744 came to 113 µM; at Olfr746, 85.9 µM; at Olfr743, 192 µM; at Olfr739, 19.5 µM; on Olfr749, 61.3 µM; at Olfr738, 18.1 µM. Moreover, the IC50 on Olfr741 (Table 22, first listing) is 108 µM; on Olfr741 (setting [7]), 121 µM; at Olfr742 (Table 22, first listing (r7-r45), read-out: Olfr742 IC50), 99.1 µM; at Olfr748, 121 µM; at Olfr740 it was 13.4 µM. For the same compound, the “Olfr744 % Inhibition” value at Olfr744 is 55.20%. Besides, the “Olfr746 % Inhibition” value on Olfr746 is reported as 13.17%. Further, at Olfr743, the “Olfr743 % Inhibition” value came out at 38.36%. In addition, the “Olfr739 % Inhibition” value at Olfr739 (Table 22, first listing) came to 102.21%; at Olfr739 (setting [7]), 55.20%. Moreover, the “Olfr749 % Inhibition” value at Olfr749 came to 91.71%. Moreover, the “Olfr738 % Inhibition” value on Olfr738 (Table 22, first listing) is recorded as 54.69%; at Olfr738 (setting [7]) it was 38.36%. The “Olfr741 % Inhibition” value worked out at 59.56% at Olfr741 (Table 22, first listing) and 9.24% at Olfr741 (setting [7]). Further, the Emax on Olfr742 (Table 22, first listing) came out at 63%; at Olfr742 (setting [7]) it was 91.7%; on Olfr740 (Table 22, first listing) it was 203%; at Olfr740 (setting [7]), 13.2%. The “Olfr748 % Inhibition” value at Olfr748 was determined as 9.24%.

Regarding `CC(=O)OC1C(C)(C)CCCC12CC(C)=C(C)C2` (stereo not drawn) [(2,3,9,9-tetramethylspiro[4.5]dec-2-en-10-yl) acetate], in test [1], the “Sensory Performance (%)” value worked out at 40%. Moreover, in test [2], the IC50 was more than 600 µM and the Emax came out at 116%.

As for `CC(=O)OC1C(C)(C)CCCC12C(C)C=CCC2C` (stereo not drawn), the “Sensory Performance (%)” value in test [1] is listed as 43%. In addition, in test [2], 72.3 µM corresponded to half-maximal inhibition (IC50) and the Emax came to 72%.

The record behind these values is patent publication US20230233425A1, “USE OF VOLATILE COMPOSITIONS TO LIMIT OR ELIMINATE THE PERCEPTION OF MALODOR” (Firmenich SA, priority 2017, published 2023).
